From patent US20230286973A1, “PROTEIN SECRETION INHIBITORS” (KEZAR LIFE SCIENCES, priority 2020, published 2023)
pEC50, pIC50: −log10 of the molar value.

Columns and labels:
[1] = tested on: PD1-ss+10aa/Gaussia Luciferase; assay: Dox-Induced PD1-ss-Gluc Assay; assay type: cell-based; conditions: 24 hr Dox induction; 293FRT/TO cells; read-out: 24 hr Dox Inducible PD1ssGluc 293FRT/TO: Mean IC50
Procedure, shortened: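 Gaussia luciferase fused downstream of the PD1 signal peptide plus 10 residues was expressed on doxycycline induction in stably transfected Flp-In 293 T-REx cells. Compounds were added with doxycycline and incubated at 37 °C, 5% CO2.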

[2] = tested on: TNFα-FL/Gaussia Luciferase; assay: Dox Induced TNFα-FL-Gluc Assay; assay type: cell-based; conditions: for pIC50: 24 hr Dox induction, 293FRT/TO cells, read-out: 24 hr Dox Inducible TNFaFLGluc 293FRT/TO: Mean IC50; for 24 hr Dox Inducible TNFaFLGluc 293FRT/TO: TNF/PD1: ratio of TNFaFLGluc IC50 to PD1ssGluc IC50
Procedure, shortened: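 Compound was added with doxycycline to cells plated a day earlier, incubating at 37° C under 5% CO2. The reporter line is 293 T-REx expressing a TNFα (1-233)–Gaussia luciferase fusion under tetracycline-regulated control.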

[3] = tested on: HER3-ss+4aa/Gaussia Luciferase; assay: Dox-Induced Her3-ss-Gluc Assay; assay type: cell-based; conditions: 24 hr Dox induction; 293FRT/TO cells; read-out: 24 hr Dox Inducible Her3(ss + 4)Gluc 293FRT/TO: Mean IC50
Procedure, shortened: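 Compounds were diluted in DMSO/media containing doxycycline. They were added to Flp-In 293 T-REx cells plated the previous day, then incubated at 37 °C under 5% CO2. These cells stably express, under T-REx control, Gaussia luciferase fused to the HER3 signal sequence plus 4 amino acids.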

[4] = tested on: IL-2-FL/Gaussia Luciferase; assay: Dox Induced IL2-FL-Gluc Assay; assay type: cell-based; conditions: for pIC50: 24 hr Dox induction, 293FRT/TO cells, read-out: 24 hr Dox Inducible IL2FLGluc 293FRT/TO: Mean IC50; for 24 hr Dox Inducible IL2FLGluc 293FRT/TO: IL2/PD1: ratio of IL2FLGluc IC50 to PD1ssGluc IC50
Procedure, shortened: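 Compounds in DMSO/medium with doxycycline were applied to a 293 T-REx stable line expressing an IL-2 (aa 1-153)–Gaussia luciferase fusion under tetracycline-regulated control, cells seeded one day earlier; incubation at 37 °C, 5% CO2. Structures drawn without stereochemistry were tested as stereoisomer mixtures.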

[5] = tested on: multiple myeloma cell line NCI-H929; assay: H929 Cell Viability Assay; assay type: cell-based, human; conditions: Homo sapiens, NCI-H929, 48 h, NCI-H929 cells, Celltiter-Glo
Procedure, shortened: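 Luminescent CellTiter-Glo read-out of viability after a 48 h exposure (37° C, 5% CO2) of NCI-H929 myeloma cells to compound dilutions in RPMI 1640 plus 10% FBS. Data for structures drawn without stereochemistry refer to stereoisomer mixtures.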

[6] = tested on: multiple myeloma cell line U266B1; assay: U266 Cell Viability Assay; assay type: cell-based, human; conditions: Homo sapiens, U-266, 48 h, U266B1 cells, Celltiter-Glo
Procedure, shortened: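 CellTiter-Glo luminescence was read after a 48 h compound exposure (37 °C, 5% CO2) of human U266B1 myeloma cells grown in 10% FBS-supplemented RPMI 1640. Data for structures shown without defined stereochemistry refer to stereoisomer mixtures.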

[7] = Liver Microsome Stability Assay (rat); conditions: rat liver microsomes, with NADPH, 1.0 uM compound
Method: (§1) Stability of a compound was assessed in the presence of liver microsomes from various sources—mouse, rat, monkey and human liver microsomes. 1.0 uM compound, 0.4% DMSO in 0.1 M Potassium Phosphate with 1.0 mg/mL liver microsomes, were incubated at 37° C. with or without 1 mM NADPH. The samples were quenched at 0, and 30 minutes.

[8] = Liver Microsome Stability Assay (mouse); conditions: mouse liver microsomes, with NADPH, 1.0 uM compound
Method: as §1

[9] = Liver Microsome Stability Assay (human); conditions: human liver microsomes, with NADPH, 1.0 uM compound
Method: as §1

[10] = Liver Microsome Stability Assay (monkey); conditions: monkey liver microsomes, with NADPH, 1.0 uM compound
Method: as §1

CC(C)(C)c1nc(/C=C/c2csc(NC(=O)c3cccn3Cc3ccncc3)n2)co1 [Compound B36, (E)-N-(4-(2-(2-(tert-butyl)oxazol-4-yl)vinyl)thiazol-2-yl)-1-(pyridin-4-ylmethyl)-1H-pyrrole-2-carboxamide]
pIC50 [1]: 6.76 | pIC50 [2]: 5.43 | 24 hr Dox Inducible TNFaFLGluc 293FRT/TO: TNF/PD1 [2]: 21.7 | pIC50 [3]: 6.11 | pIC50 [4]: 5.60 | 24 hr Dox Inducible IL2FLGluc 293FRT/TO: IL2/PD1 [4]: 14 | pEC50 [5]: 5.15 | pEC50 [6]: 5.13 | Liver Microsome Stability (Multiple Species): Rat - % Remaining after 30 min w/NADPH [7]: 2.95% | Liver Microsome Stability (Multiple Species): Mouse - % Remaining after 30 min w/NADPH [8]: 9.8% | Liver Microsome Stability (Multiple Species): Human - % Remaining after 30 min w/NADPH [9]: 0.7% | Liver Microsome Stability (Multiple Species): Monkey - % Remaining after 30 min w/NADPH [10]: 3.93%

CC(C)n1cnc(/C=C/c2csc(NC(=O)c3cccn3Cc3ccncc3)n2)c1 [Compound B37, (E)-N-(4-(2-(1-isopropyl-1H-imidazol-4-yl)vinyl)thiazol-2-yl)-1-(pyridin-4-ylmethyl)-1H-pyrrole-2-carboxamide]
pIC50 [1]: 7.17 | pIC50 [2]: < 4.60 | 24 hr Dox Inducible TNFaFLGluc 293FRT/TO: TNF/PD1 [2]: >366 | pIC50 [3]: < 4.60 | pIC50 [4]: < 4.60 | 24 hr Dox Inducible IL2FLGluc 293FRT/TO: IL2/PD1 [4]: >370 | pEC50 [5]: < 4.60 | pEC50 [6]: < 4.60 | Liver Microsome Stability (Multiple Species): Rat - % Remaining after 30 min w/NADPH [7]: 6.38% | Liver Microsome Stability (Multiple Species): Mouse - % Remaining after 30 min w/NADPH [8]: 2.42% | Liver Microsome Stability (Multiple Species): Human - % Remaining after 30 min w/NADPH [9]: 0.13% | Liver Microsome Stability (Multiple Species): Monkey - % Remaining after 30 min w/NADPH [10]: 0.13%

CC(C)c1nc(/C=C/c2csc(NC(=O)c3cccn3Cc3ccncc3)n2)co1 [Compound B38, (E)-N-(4-(2-(2-isopropyloxazol-4-yl)vinyl)thiazol-2-yl)-1-(pyridin-4-ylmethyl)-1H-pyrrole-2-carboxamide]
pIC50 [1]: 6.72 | pIC50 [2]: 5.15 | 24 hr Dox Inducible TNFaFLGluc 293FRT/TO: TNF/PD1 [2]: 36.6 | pIC50 [3]: 5.86 | pIC50 [4]: 5.25 | 24 hr Dox Inducible IL2FLGluc 293FRT/TO: IL2/PD1 [4]: 29 | pEC50 [5]: 5.12 | pEC50 [6]: 5.05 | Liver Microsome Stability (Multiple Species): Rat - % Remaining after 30 min w/NADPH [7]: 1.03% | Liver Microsome Stability (Multiple Species): Mouse - % Remaining after 30 min w/NADPH [8]: 6.78% | Liver Microsome Stability (Multiple Species): Human - % Remaining after 30 min w/NADPH [9]: 0.54% | Liver Microsome Stability (Multiple Species): Monkey - % Remaining after 30 min w/NADPH [10]: 0.69%

O=C(Nc1nc(/C=C/c2coc(C3CCCCC3)n2)cs1)c1cccn1Cc1ccncc1 [Compound B39, (E)-N-(4-(2-(2-cyclohexyloxazol-4-yl)vinyl)thiazol-2-yl)-1-(pyridin-4-ylmethyl)-1H-pyrrole-2-carboxamide]
pIC50 [1]: 6.57 | pIC50 [2]: 5.19 | 24 hr Dox Inducible TNFaFLGluc 293FRT/TO: TNF/PD1 [2]: 24.1 | pIC50 [3]: 6.02 | pIC50 [4]: 5.71 | 24 hr Dox Inducible IL2FLGluc 293FRT/TO: IL2/PD1 [4]: 7.3 | pEC50 [5]: 4.99 | pEC50 [6]: 4.88 | Liver Microsome Stability (Multiple Species): Rat - % Remaining after 30 min w/NADPH [7]: 5.38% | Liver Microsome Stability (Multiple Species): Mouse - % Remaining after 30 min w/NADPH [8]: 16.5% | Liver Microsome Stability (Multiple Species): Human - % Remaining after 30 min w/NADPH [9]: 0.27% | Liver Microsome Stability (Multiple Species): Monkey - % Remaining after 30 min w/NADPH [10]: 0.47%

O=C(Nc1nc(/C=C/c2coc(C3CC3)n2)cs1)c1cccn1Cc1ccncc1 [Compound B40, (E)-N-(4-(2-(2-cyclopropyloxazol-4-yl)vinyl)thiazol-2-yl)-1-(pyridin-4-ylmethyl)-1H-pyrrole-2-carboxamide]
pIC50 [1]: 6.66 | pIC50 [2]: < 4.60 | 24 hr Dox Inducible TNFaFLGluc 293FRT/TO: TNF/PD1 [2]: >113 | pIC50 [3]: 5.78 | pIC50 [4]: 5.34 | 24 hr Dox Inducible IL2FLGluc 293FRT/TO: IL2/PD1 [4]: 21 | pEC50 [5]: < 4.60 | pEC50 [6]: < 4.60 | Liver Microsome Stability (Multiple Species): Rat - % Remaining after 30 min w/NADPH [7]: 0.73% | Liver Microsome Stability (Multiple Species): Mouse - % Remaining after 30 min w/NADPH [8]: 5.73% | Liver Microsome Stability (Multiple Species): Human - % Remaining after 30 min w/NADPH [9]: 0.48% | Liver Microsome Stability (Multiple Species): Monkey - % Remaining after 30 min w/NADPH [10]: 2.25%

Cc1coc(/C=C/c2csc(NC(=O)c3cccn3Cc3ccncc3)n2)n1 [Compound B41, (E)-N-(4-(2-(4-methyloxazol-2-yl)vinyl)thiazol-2-yl)-1-(pyridin-4-ylmethyl)-1H-pyrrole-2-carboxamide]
pIC50 [1]: 6.40 | pIC50 [2]: < 4.60 | 24 hr Dox Inducible TNFaFLGluc 293FRT/TO: TNF/PD1 [2]: >62.8 | pIC50 [3]: 5.44 | pIC50 [4]: < 4.78 | 24 hr Dox Inducible IL2FLGluc 293FRT/TO: IL2/PD1 [4]: >42 | pEC50 [5]: < 4.60 | pEC50 [6]: < 4.60 | Liver Microsome Stability (Multiple Species): Rat - % Remaining after 30 min w/NADPH [7]: 0.15% | Liver Microsome Stability (Multiple Species): Mouse - % Remaining after 30 min w/NADPH [8]: 0.36% | Liver Microsome Stability (Multiple Species): Human - % Remaining after 30 min w/NADPH [9]: 0.18% | Liver Microsome Stability (Multiple Species): Monkey - % Remaining after 30 min w/NADPH [10]: 0.44%

O=C(Nc1nc(/C=C/c2c[nH]cn2)cs1)c1cccn1Cc1ccncc1 [Compound B42, (E)-N-(4-(2-(1H-imidazol-4-yl)vinyl)thiazol-2-yl)-1-(pyridin-4-ylmethyl)-1H-pyrrole-2-carboxamide]
pIC50 [1]: 5.18 | pIC50 [2]: < 4.60 | 24 hr Dox Inducible TNFaFLGluc 293FRT/TO: TNF/PD1 [2]: >3.74 | pIC50 [3]: < 4.60 | pIC50 [4]: < 4.60 | 24 hr Dox Inducible IL2FLGluc 293FRT/TO: IL2/PD1 [4]: >3.7 | pEC50 [5]: < 4.60 | pEC50 [6]: < 4.60 | Liver Microsome Stability (Multiple Species): Rat - % Remaining after 30 min w/NADPH [7]: 8.69% | Liver Microsome Stability (Multiple Species): Mouse - % Remaining after 30 min w/NADPH [8]: 26.5% | Liver Microsome Stability (Multiple Species): Human - % Remaining after 30 min w/NADPH [9]: 6.13% | Liver Microsome Stability (Multiple Species): Monkey - % Remaining after 30 min w/NADPH [10]: 11.3%

O=C(Nc1nc(/C=C/c2cnccn2)cs1)c1cccn1Cc1ccncc1 [Compound B43, (E)-N-(4-(2-(pyrazin-2-yl)vinyl)thiazol-2-yl)-1-(pyridin-4-ylmethyl)-1H-pyrrole-2-carboxamide]
pIC50 [1]: 6.58 | pIC50 [2]: < 4.60 | 24 hr Dox Inducible TNFaFLGluc 293FRT/TO: TNF/PD1 [2]: >94.5 | pIC50 [3]: < 4.60 | pIC50 [4]: < 4.60 | 24 hr Dox Inducible IL2FLGluc 293FRT/TO: IL2/PD1 [4]: >95 | pEC50 [5]: < 4.60 | pEC50 [6]: < 4.60 | Liver Microsome Stability (Multiple Species): Rat - % Remaining after 30 min w/NADPH [7]: 1.88% | Liver Microsome Stability (Multiple Species): Mouse - % Remaining after 30 min w/NADPH [8]: 1.19% | Liver Microsome Stability (Multiple Species): Human - % Remaining after 30 min w/NADPH [9]: 1.83% | Liver Microsome Stability (Multiple Species): Monkey - % Remaining after 30 min w/NADPH [10]: 0.92%
